Measured values reported in publication PMC3051820 (The Journal of Cell Biology, 2011).

Molecular target: mitochondrial complex I (Mus musculus, UniProt P03888+Q91WD5+Q9DC70)
Test: polarography: oxygen consumption in cells with complex I-specific substrates
Assay type: cell-based

mitochondrial complex I, sequence (Q91VD9 24-727): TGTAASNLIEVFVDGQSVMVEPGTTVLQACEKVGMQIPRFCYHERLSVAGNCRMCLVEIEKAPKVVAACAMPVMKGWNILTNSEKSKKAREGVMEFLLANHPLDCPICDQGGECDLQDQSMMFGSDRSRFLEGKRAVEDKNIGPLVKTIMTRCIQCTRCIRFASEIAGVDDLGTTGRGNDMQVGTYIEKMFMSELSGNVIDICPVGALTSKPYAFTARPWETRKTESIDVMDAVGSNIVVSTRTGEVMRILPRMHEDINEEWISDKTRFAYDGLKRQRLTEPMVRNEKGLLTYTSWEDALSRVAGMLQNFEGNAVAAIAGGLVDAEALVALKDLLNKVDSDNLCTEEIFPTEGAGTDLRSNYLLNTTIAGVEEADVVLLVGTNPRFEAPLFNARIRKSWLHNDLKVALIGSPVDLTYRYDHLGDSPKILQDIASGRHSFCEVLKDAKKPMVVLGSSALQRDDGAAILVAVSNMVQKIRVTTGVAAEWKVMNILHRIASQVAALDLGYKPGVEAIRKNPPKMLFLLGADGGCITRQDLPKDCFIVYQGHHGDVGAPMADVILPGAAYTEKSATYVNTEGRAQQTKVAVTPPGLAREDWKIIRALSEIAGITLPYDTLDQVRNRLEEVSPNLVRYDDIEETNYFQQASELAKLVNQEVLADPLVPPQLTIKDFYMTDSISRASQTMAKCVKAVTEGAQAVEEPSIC
mitochondrial complex I, sequence (Q91WD5 34-463): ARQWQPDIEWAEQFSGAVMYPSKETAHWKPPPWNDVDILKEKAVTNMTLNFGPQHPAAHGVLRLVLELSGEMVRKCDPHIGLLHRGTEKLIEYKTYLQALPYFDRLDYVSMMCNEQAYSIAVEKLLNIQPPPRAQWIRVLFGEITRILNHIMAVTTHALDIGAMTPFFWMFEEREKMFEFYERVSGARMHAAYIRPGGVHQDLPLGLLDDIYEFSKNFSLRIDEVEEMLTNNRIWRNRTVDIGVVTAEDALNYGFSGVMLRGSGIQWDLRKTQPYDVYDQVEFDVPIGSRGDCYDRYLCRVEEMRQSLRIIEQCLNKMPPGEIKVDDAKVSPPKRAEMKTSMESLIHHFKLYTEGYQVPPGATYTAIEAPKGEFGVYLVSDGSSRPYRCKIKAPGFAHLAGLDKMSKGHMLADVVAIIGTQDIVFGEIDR
mitochondrial complex I, sequence (P03888 whole entry): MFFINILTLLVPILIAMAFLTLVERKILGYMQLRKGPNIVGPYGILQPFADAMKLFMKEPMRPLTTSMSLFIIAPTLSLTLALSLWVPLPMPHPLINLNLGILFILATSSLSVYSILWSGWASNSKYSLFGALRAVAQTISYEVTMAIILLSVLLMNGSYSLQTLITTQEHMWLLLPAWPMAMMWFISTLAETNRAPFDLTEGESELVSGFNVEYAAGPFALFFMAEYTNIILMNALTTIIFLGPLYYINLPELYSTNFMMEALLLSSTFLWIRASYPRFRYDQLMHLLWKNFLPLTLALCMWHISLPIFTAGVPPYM
mitochondrial complex I, sequence (Q9DC70 36-224): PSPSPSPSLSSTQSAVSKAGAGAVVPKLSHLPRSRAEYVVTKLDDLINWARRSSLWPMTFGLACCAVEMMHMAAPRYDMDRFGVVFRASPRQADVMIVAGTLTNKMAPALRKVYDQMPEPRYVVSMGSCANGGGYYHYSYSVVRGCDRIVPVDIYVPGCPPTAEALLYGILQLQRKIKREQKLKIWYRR
mitochondrial complex I, sequence (Q91YT0 21-464, further chain): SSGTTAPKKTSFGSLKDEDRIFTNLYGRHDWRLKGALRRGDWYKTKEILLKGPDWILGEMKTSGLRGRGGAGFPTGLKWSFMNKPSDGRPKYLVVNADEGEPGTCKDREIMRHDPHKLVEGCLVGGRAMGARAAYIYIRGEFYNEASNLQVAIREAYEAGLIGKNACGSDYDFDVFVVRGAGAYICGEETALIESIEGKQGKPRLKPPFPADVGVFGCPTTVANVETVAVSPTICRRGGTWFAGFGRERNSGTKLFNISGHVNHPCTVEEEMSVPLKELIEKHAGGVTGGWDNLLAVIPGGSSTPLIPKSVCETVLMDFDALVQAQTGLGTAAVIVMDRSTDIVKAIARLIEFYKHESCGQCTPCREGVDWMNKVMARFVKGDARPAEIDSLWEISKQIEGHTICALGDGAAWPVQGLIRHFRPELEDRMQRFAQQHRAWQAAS

With C/C=C(\C)[C@H](O)[C@H](C)/C=C(C)/C=C/C/C(C)=C/Cc1nc(OC)c(OC)c(O)c1C [piericidin A] the IC50 was 10 nM.

Compound C=C(C)[C@H]1Cc2c(ccc3c2O[C@@H]2COc4cc(OC)c(OC)cc4[C@@H]2C3=O)O1 [rotenone] has an IC50 of 20 nM.
